Results as given in patent US11185523B2, “Use of bipolar trans carotenoids with chemotherapy and radiotherapy for treatment of cancer” (DIFFUSION PHARMACEUTICALS LLC, priority 2016, dated 2021).

Experiments:
[1] = Absorption into blood stream after intramuscular injection with gamma cyclodextrin; type: in vivo, rat; details: injected intramuscularly, rats
Description: The use of gamma-cyclodextrin with TSC increases the solubility of TSC in water by 3-7 times. […] The incorporation of the gamma cyclodextrin also allows for TSC to be absorbed into the blood stream when injected intramuscularly. Absorption is quick, and efficacious blood levels of TSC are reached quickly (as shown in rats).

DMBA breast tumors = experiment: DMBA breast tumor model, TSC before chemotherapy; type: in vivo
Memory Recall = experiment: Pre-clinical efficacy study: Memory Recall; type: in vivo; details: Rat
Description: (§1) It has also been determined that several non-cancer disorders are beneficially treated utilizing an administration regimen of a bipolar trans carotenoid such as TSC, as described below.

Myocardial Infarction = experiment: Pre-clinical efficacy study: Myocardial Infarction; type: in vivo; details: Pig
Description: as §1

Cancer Chemosensitizer = experiment: Pre-clinical efficacy study: Cancer Chemosensitizer; type: in vivo; details: Rat
Description: as §1

Critical Limb Ischemia = experiment: Pre-clinical efficacy study: Critical Limb Ischemia; type: in vivo; details: Mouse
Description: as §1

[2] = test system: Cancer: Radiation Sensitizer; experiment: Pre-clinical efficacy study: Cancer: Radiation Sensitizer; type: in vivo
Description: as §1

[3] = Phase 1 and Phase 2 clinical trials of TSC, safety; type: in vivo; details: 148 human subjects
Description: A Phase ½ clinical trial was recently completed examining TSC in patients with GBM. The Phase ½ clinical trial in GBM enrolled 59 patients with newly diagnosed disease that received TSC in conjunction with radiation therapy (RT) and temozolomide (TMZ). In the Phase I portion of the trial TSC was initially administered three times per week at half-dose to three patients prior to radiation. Six additional patients received full dose TSC for six weeks in combination with radiation. […] Fifty additional patients were enrolled in the Phase II trial at full dose TSC in combination with TMZ and RT. Four weeks after completion of RT, all patients resumed TMZ for five days every four weeks, but no further TSC was administered.

## CC(/C=C/C=C(\C)C(=O)[O-])=C\C=C\C=C(C)\C=C\C=C(/C)C(=O)[O-].[Na+].[Na+] [TSC, trans sodium crocetinate]
[1]
  absorption into the blood stream: quick
DMBA breast tumors; low dose (for rats) 0.1 mg/kg TSC IV 50 minutes before chemotherapy
  effect on tumor volume with cisplatin: not effective
DMBA breast tumors; low dose of TSC 50 minutes before chemotherapy
  effect on tumor volume with gemcitabine: not effective
Memory Recall
  Best Dosage: High
Myocardial Infarction
  Best Dosage: Low
Cancer Chemosensitizer
  Best Dosage: High
Critical Limb Ischemia
  Best Dosage: High
[2]; Mouse
  Best Dosage: Low
[2]; Rat
  Best Dosage: Low
[3]
  serious adverse events: no serious adverse events reported
